Reference: EPA's ToxValDB 9.5 (doi:10.2903/j.efsa.2009.186r)
Values after ≈ are worked out from the molar mass of the structure shown.

Columns and labels:
[1] = test system: Anas platyrhynchos; settings: acute; oral; unspecified; mortality
[2] = test system: Rattus norvegicus
[3] = test system: Tagia sp.; settings: acute; duration: 14 days; mortality
[4] = test system: Oncorhynchus mykiss
[5] = test system: Colinus virginianus; settings: for LD50: acute, oral, mortality
[6] = test system: Canidae; settings: chronic; duration: 1 years; oral; Dog Other; clinical signs
[7] = test system: Apis mellifera; settings: acute; duration: 48 hours; oral; unspecified; mortality
[8] = test system: Mus musculus; settings: acute; oral; mortality
[9] = test system: Aphidius rhopalosiphi; settings: not reported; mortality
[10] = test system: Bibionidae; settings: chronic/long-term; duration: 28 days
[11] = test system: Daphnia magna; settings: chronic/long-term; duration: 21 days; reproduction

Structure (SMILES): Cc1c(COC(=O)[C@@H]2[C@H](/C=C(\Cl)C(F)(F)F)C2(C)C)cccc1-c1ccccc1 [Bifenthrin]
- LD50 [1]: > 2150 mg/kg
- NOAEL ([2]; developmental, development): > 2 mg/kg-day
- NOAEL ([2]; reproduction developmental, reproduction): 3 mg/kg-day
- NOAEL ([2]; subchronic, duration: 90 days, oral, neurology): 2.9 mg/kg-day
- LC50 [3]: > 16 mg/kg
- LC50 ([4]; acute, duration: 96 hours, mortality): 0.1 ng/mL (≈ 0.236 nM)
- NOEC ([4]; chronic/long-term, duration: 30 days, other): 1.2e-05 mg/L
- LD50 ([5]; diet): 569 mg/kg-day
- LD50 [5]: 1800 mg/kg
- NOEC ([5]; reproduction developmental): 75 mg/kg-day
- NOAEL [6]: 1.5 mg/kg-day
- LD50 [7]: 0.1 µg/piece
- LD50 [8]: 42.5 mg/kg
- LEL [9]: 60 g/ha
- NOEC [10]: 0.00032 mg/L
- NOEC [11]: 9.5e-07 mg/L
